Where a name gives a salt, the structure may show the parent alone. Active and inactive are the calls of the source. The calls are words filed in the database; no cut-off is given here.
Tests used:
[1] = target: T1, Amine oxidase [flavin-containing] B (Homo sapiens, UniProt P27338); test: Inhibition of human recombinant MAO-B expressed in baculovirus infected BTI insect cells measured after 30 to 90 sec by absorbance based assay; conditions: for inhibition (INH): human, bti, time 30-90 sec
T1 sequence (P27338 whole entry): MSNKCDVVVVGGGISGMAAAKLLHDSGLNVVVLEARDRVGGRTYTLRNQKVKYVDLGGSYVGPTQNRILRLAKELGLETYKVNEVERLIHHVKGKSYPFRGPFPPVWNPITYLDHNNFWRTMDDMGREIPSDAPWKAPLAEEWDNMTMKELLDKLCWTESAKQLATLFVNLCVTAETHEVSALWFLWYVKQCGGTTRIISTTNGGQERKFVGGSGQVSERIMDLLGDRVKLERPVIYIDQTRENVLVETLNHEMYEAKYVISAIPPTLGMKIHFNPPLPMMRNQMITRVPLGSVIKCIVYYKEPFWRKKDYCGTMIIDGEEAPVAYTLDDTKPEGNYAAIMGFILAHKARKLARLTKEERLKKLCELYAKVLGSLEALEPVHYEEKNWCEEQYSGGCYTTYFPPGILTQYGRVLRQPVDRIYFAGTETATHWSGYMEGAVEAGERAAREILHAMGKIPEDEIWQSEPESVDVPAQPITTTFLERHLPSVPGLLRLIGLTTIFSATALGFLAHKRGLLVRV

Acetylcholinesterase [2] = target: T2, Acetylcholinesterase (Homo sapiens, UniProt P22303); test: Inhibition of AChE (unknown origin) using acetylthiocholine iodide as substrate incubated for 15 mins by DTNB reagent based ELISA
T2 sequence (P22303 whole entry): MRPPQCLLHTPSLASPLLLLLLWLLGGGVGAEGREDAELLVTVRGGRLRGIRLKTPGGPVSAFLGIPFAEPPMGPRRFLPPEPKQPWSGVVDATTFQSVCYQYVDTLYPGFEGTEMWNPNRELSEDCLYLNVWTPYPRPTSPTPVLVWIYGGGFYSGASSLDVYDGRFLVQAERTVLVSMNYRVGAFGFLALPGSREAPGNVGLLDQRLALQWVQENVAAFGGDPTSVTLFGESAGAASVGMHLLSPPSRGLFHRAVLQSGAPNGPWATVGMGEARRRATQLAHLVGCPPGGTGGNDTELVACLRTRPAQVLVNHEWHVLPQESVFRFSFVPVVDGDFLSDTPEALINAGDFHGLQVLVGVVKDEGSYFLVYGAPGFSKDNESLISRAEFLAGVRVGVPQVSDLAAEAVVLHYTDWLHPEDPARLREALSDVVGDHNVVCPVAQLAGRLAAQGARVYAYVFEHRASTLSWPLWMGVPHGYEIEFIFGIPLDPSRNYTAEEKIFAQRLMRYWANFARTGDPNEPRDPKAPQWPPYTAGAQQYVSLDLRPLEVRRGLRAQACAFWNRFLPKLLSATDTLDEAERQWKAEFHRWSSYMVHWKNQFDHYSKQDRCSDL

Cholinesterase [3] = target: T3, Cholinesterase (Homo sapiens, UniProt P06276); test: Inhibition of BChE (unknown origin) using butyrylthiocholine iodide as substrate incubated for 15 mins by DTNB reagent based ELISA
T3 sequence (P06276 whole entry): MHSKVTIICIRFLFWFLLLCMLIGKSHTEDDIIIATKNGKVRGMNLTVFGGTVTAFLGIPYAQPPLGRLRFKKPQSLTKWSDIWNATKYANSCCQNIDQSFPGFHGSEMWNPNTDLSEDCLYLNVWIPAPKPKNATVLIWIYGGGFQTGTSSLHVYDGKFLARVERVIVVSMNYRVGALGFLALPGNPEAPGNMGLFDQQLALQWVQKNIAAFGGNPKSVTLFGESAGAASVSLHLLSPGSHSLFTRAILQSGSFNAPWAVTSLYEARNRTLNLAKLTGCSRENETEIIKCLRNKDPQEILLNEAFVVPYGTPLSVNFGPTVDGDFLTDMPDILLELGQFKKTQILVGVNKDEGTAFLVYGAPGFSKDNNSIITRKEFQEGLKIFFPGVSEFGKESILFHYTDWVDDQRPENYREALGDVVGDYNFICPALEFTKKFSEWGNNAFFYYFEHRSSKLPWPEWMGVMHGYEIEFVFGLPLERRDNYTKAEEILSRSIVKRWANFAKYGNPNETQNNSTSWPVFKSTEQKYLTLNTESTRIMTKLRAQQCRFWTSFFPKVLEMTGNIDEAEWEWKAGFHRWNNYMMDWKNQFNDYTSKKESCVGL

[4] = Antioxidant activity assessed as DPPH radical scavenging activity measured after 30 mins by spectrophotometric analysis; type: functional
[5] = target: T4, Amine oxidase [flavin-containing] A (Homo sapiens, UniProt P21397); test: Inhibition of MAO-A (unknown origin) measured after 30 to 90 sec by absorbance based assay; conditions: for inhibition (INH): human, time 30-90 sec
T4 sequence (P21397 whole entry): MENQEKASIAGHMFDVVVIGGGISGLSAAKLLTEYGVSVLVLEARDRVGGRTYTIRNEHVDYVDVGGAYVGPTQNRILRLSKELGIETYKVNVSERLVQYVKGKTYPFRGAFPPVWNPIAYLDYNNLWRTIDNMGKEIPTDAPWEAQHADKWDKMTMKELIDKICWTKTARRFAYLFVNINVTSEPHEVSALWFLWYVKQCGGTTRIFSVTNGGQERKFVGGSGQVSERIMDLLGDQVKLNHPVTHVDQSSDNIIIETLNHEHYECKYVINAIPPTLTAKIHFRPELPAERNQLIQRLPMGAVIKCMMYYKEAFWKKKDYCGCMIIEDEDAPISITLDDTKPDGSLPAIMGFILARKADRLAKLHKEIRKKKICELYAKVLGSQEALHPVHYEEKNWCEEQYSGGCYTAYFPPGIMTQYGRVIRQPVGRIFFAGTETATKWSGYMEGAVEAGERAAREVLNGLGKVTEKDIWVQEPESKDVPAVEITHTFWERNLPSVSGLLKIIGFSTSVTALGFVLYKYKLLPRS

[6] = Selectivity index, ratio of IC50 for inhibition of BChE (unknown origin) using butyrylthiocholine iodide as substrate to IC50 for inhibition of AChE (unknown origin) using acetylthiocholine iodide as substrate
Acetylcholinesterase [7] = target: T2, Acetylcholinesterase; test: Potency index, ratio of donepezil IC50 to test compound IC50 for inhibition of AChE (unknown origin) using acetylthiocholine iodide as substrate incubated for 15 mins by DTNB reagent based ELISA
Acetylcholinesterase [8] = target: T2, Acetylcholinesterase; test: Inhibition of human recombinant AChE using acetylthiocholine iodide as substrate preincubated for 5 mins followed by substrate addition and measured after 2 mins by absorbance based microplate reader
Cholinesterase [9] = target: T3, Cholinesterase; test: Inhibition of human BChE using butyrylthiocholine iodide as substrate preincubated for 5 mins followed by substrate addition and measured after 2 mins by absorbance based microplate reader

## OC(CCN1CCCCC1)(c1ccccc1)C1CC2C=CC1C2 (centres undefined) [BIPERIDEN HYDROCHLORIDE]
[1]
  IC50: 266 µM

## CCCCOc1cc(-c2nc(-c3ccccc3)no2)ccc1N
Acetylcholinesterase [2]
  IC50: 191 nM
Cholinesterase [3]
  IC50: 11.5 µM
[4]
  IC50: 59.2 µM
[1]
  inhibition (INH): Not Active
[5]
  inhibition (INH): Not Active
[6]
  Ratio IC50: 60.3

## Cc1cc(NS(=O)(=O)c2ccc(NC(=O)COc3ccccc3-c3nc(-c4ccccc4)no3)cc2)no1
Acetylcholinesterase [2]
  IC50: 94 nM
Cholinesterase [3]
  IC50: 26.7 µM
[4]
  Activity: inactive
[1]
  inhibition (INH): Not Active
[5]
  inhibition (INH): Not Active
[6]
  Ratio IC50: 283
Acetylcholinesterase [7]
  Ratio IC50: 1.01

## CCCCOc1cc(-c2nc(C)no2)ccc1N
Acetylcholinesterase [2]
  IC50: 16 nM
Cholinesterase [3]
  IC50: 47.6 µM
[4]
  Activity: inactive
[1]
  inhibition (INH): Not Active
[5]
  inhibition (INH): Not Active
[6]
  Ratio IC50: 3010
Acetylcholinesterase [7]
  Ratio IC50: 1.01

## CC(CCCCn1c(=O)c2c(ncn2C)n(C)c1=O)=NNC(=O)COc1ccccc1-c1nc(Cc2ccccc2)no1
Acetylcholinesterase [2]
  inhibition: inactive
Cholinesterase [3]
  inhibition: inactive
[4]
  Activity: inactive
[1]
  inhibition (INH): Not Active
[5]
  IC50: 957 µM

## CCCNC(C)C(=O)Nc1c(C)csc1-c1nc(-c2ccccc2N)no1 (centres undefined)
Acetylcholinesterase [2]
  IC50: 121 nM
Cholinesterase [3]
  IC50: 54.5 µM
[4]
  IC50: 959 µM
[1]
  IC50: 289 µM
[5]
  IC50: 248 µM
[6]
  Ratio IC50: 449
Acetylcholinesterase [7]
  Ratio IC50: 1.01

## CC(CCCCn1c(=O)c2c(ncn2C)n(C)c1=O)=NNC(=O)COc1ccccc1-c1nc(-c2ccccc2)no1
Acetylcholinesterase [2]
  IC50: 94 nM
Cholinesterase [3]
  IC50: 15 µM
[4]
  Activity: inactive
[1]
  inhibition (INH): Not Active
[5]
  inhibition (INH): Not Active
[6]
  Ratio IC50: 159
Acetylcholinesterase [7]
  Ratio IC50: 1.01

## O=C1O[C@H]([C@@H](O)CO)C(O)=C1O [ASCORBIC ACID]
[4]
  IC50: 74.5 µM

## Cc1noc(-c2ccc(N)cc2)n1
Acetylcholinesterase [2]
  IC50: 104 nM
Cholinesterase [3]
  IC50: 138 µM
[4]
  IC50: 105 µM
[1]
  inhibition (INH): Not Active
[5]
  inhibition (INH): Not Active
[6]
  Ratio IC50: 1320
Acetylcholinesterase [7]
  Ratio IC50: 1.01

## CCCNC(C)C(=O)Nc1c(C)csc1-c1nc(C)no1 (centres undefined)
Acetylcholinesterase [2]
  IC50: 201 nM
Cholinesterase [3]
  IC50: 125 µM
[4]
  Activity: inactive
[1]
  inhibition (INH): Not Active
[5]
  IC50: 1260 µM
[6]
  Ratio IC50: 622

## CCCNC(C)C(=O)Nc1c(C)csc1-c1nc(Cc2ccccc2)no1 (centres undefined)
Acetylcholinesterase [2]
  IC50: 48 nM
Cholinesterase [3]
  IC50: 41.4 µM
[4]
  IC50: 1350 µM
[1]
  IC50: 74.7 µM
[5]
  IC50: 197 µM
[6]
  Ratio IC50: 856
Acetylcholinesterase [7]
  Ratio IC50: 1.01

## Cc1cc(NS(=O)(=O)c2ccc(-n3cc(COc4ccccc4-c4nc(-c5ccc(C(F)(F)F)cc5)no4)nn3)cc2)no1
Acetylcholinesterase [2]
  inhibition: inactive
Cholinesterase [3]
  inhibition: inactive
[4]
  Activity: inactive
[1]
  inhibition (INH): Not Active
[5]
  IC50: 273 µM

## Cc1cc(NS(=O)(=O)c2ccc(-n3cc(COc4ccccc4-c4nc(Cc5ccccc5)no4)nn3)cc2)no1
Acetylcholinesterase [2]
  IC50: 103 nM
Cholinesterase [3]
  inhibition: inactive
[4]
  Activity: inactive
[1]
  inhibition (INH): Not Active
[5]
  IC50: 533 µM
Acetylcholinesterase [7]
  Ratio IC50: 1.01

## Cc1cc(=O)oc2cc(OCc3ccc(-c4noc([C@@H]5CCCN5)n4)cc3)ccc12
Acetylcholinesterase [8]
  IC50: 77.6 µM
Cholinesterase [9]
  IC50: 8.17 µM

## Nc1ccc(-c2nc(-c3ccccc3N)no2)cc1
Acetylcholinesterase [2]
  IC50: 201 nM
Cholinesterase [3]
  IC50: 85.6 µM
[4]
  Activity: inactive
[1]
  inhibition (INH): Not Active
[5]
  inhibition (INH): Not Active
[6]
  Ratio IC50: 427

## CC(=NNC(=O)COc1ccccc1-c1nc(Cc2ccccc2)no1)c1nnn(-c2ccc(S(N)(=O)=O)cc2)c1C
Acetylcholinesterase [2]
  inhibition: inactive
Cholinesterase [3]
  inhibition: inactive
[4]
  Activity: inactive
[1]
  inhibition (INH): Not Active
[5]
  inhibition (INH): Not Active

## CCCNC(C)C(=O)Nc1c(C)csc1-c1nc(-c2ccccc2)no1 (centres undefined)
Acetylcholinesterase [2]
  IC50: 102 nM
Cholinesterase [3]
  IC50: 33.2 µM
[4]
  IC50: 1150 µM
[1]
  IC50: 225 µM
[5]
  IC50: 380 µM
[6]
  Ratio IC50: 325
Acetylcholinesterase [7]
  Ratio IC50: 1.01

## Cc1cc(NS(=O)(=O)c2ccc(-n3cc(COc4ccccc4-c4nc(-c5ccccc5)no4)nn3)cc2)no1
Acetylcholinesterase [2]
  IC50: 104 nM
Cholinesterase [3]
  IC50: 26.1 µM
[4]
  IC50: 56.7 µM
[1]
  inhibition (INH): Not Active
[5]
  inhibition (INH): Not Active
[6]
  Ratio IC50: 250
Acetylcholinesterase [7]
  Ratio IC50: 1.01

Reference: ChEMBL document CHEMBL5532757, “Design, synthesis, and biological evaluation of 1,2,4-oxadiazole-based derivatives as multitarget anti-Alzheimer agents” (RSC Med Chem, 2024)
